Reference: patent publication US20080207632A1, “PROTEIN KINASE INHIBITORS” (SUPERGEN, INC., priority 2006, published 2008)
Like-named read-outs stand apart in the source and are kept apart here.

How the values were obtained:
[1] = system: TT (medullary thyroid); experiment: in vitro cytotoxicity assay (Cell-Titer-Glo), TT; type: cell-based
Method: (§1) To evaluate cell killing of cancer cell lines, an in vitro cytotoxicity assay was performed. The tumor cell lines used were purchased from the American Type Culture Collection, and are identified as follows: Panc-1 (pancreas), MiaPaCa-2 (pancreas), MCF-7 (breast), HT-29 (colon), U2-OS (osteosarcoma), OVCAR-3 (ovary), HepG2 (hepatocellular carcinoma) and TT (medullary thyroid). The assay utilized the Cell-Titer-Glo Non-Radioactive Cell Proliferation Assay (Promega Corp., Madison, Wis.). First the cells were cultured in RPMI 1640 medium (Cat# 21870-076, Invitrogen Corporation) supplemented with 300 mg/L L-glutamine, 100 units/ml penicillin, 100 μg/ml streptomycin and 10% fetal bovine serum. All the cell lines were incubated in a humidified incubator at 37° C. with 5% CO2 atmosphere.
Cells were plated at a density of 2000 to 10000 cells per well, depending on their growth rate, in 0.09 mL medium on day 0 in 96-well Microlite TCT microtiter plates (7418, Thermo Labsystems, Franklin, Mass.). On day 1, 10 μL of serial dilutions of the individual compounds were added to the plates in replicates of 3. After incubation for 4 days at 37° C. in a humidified incubator, the cells were lysed in the Cell-Titer-Glo reagent, which also contains luciferase enzyme. The luciferase reaction utilizes ATP released from lysed cells to produce light, the intensity of which is linearly related to the amount of ATP. Thus, the amount of light produced is a reflection of the number of cells remaining in the well after drug treatment. This luminescence was measured using a Luminoskan luminometer (Thermo Electron Corp., Vantaa, Finland) Data were expressed as the percentage of survival of control cells calculated from the luminescence corrected for background. The surviving percent of cells was determined by dividing the mean luminescence values of the treated wells by the mean luminescence values of the control and multiplying by 100.
as §1, with “Briefly,” for “To evaluate cell killing of cancer cell lines, an in vitro cytotoxicity assay was performed. The”, “thyroid), PC-3 (prostate) and A549 (lung).” for “thyroid).”
Cell culture-based assays can be used to evaluate the ability of compounds of the invention to inhibit one or more cellular activities, such as cancer cell growth and/or survival. Numerous cancer cell lines can be obtained from the American Type Culture Collection (ATCC) and other sources. Briefly, cells are seeded into 96-well, tissue-culture treated, opaque white plates (Thermo Electron, Vantaa, Finland), at between 5000 and 10000 cells per well, depending on the speed of cell proliferation, in 100 μl of appropriate growth medium (determined by the ATCC). Cells are then exposed to the appropriate concentration of drug or an equal amount of DMSO (drug diluent) and allowed to grow in its presence for 96 hours. Following this, 100 μl of Cell-Titer-Glo reagent (Promega, Inc., Madison, Wis.) is added to each well. Plates are then shaken for 2 minutes at room temperature to allow for cell lysis and incubated for 10 minutes to stabilize the luminescent signal. Similar to the Kinase-Glo assay reagent from Promega, this reagent contains both luciferase enzyme and its substrate luciferin. Luciferase, activated by ATP in the cell lysate, catalyzes the conversion of luciferin to oxyluciferin, a reaction which produces light. […]

[2] = system: MiaPaCa-2 (pancreas); experiment: in vitro cytotoxicity assay (Cell-Titer-Glo), MiaPaCa-2; type: cell-based; conditions: Homo sapiens, MIA PaCa-2; Table 10; 96 hours; read-out: IC50 MiaPaCa-2 (inhibit cell growth to 50% of untreated)
[3] = system: HT-29 cells; experiment: hollow fiber xenograft model (MTT), HT-29; type: in vivo, athymic nude mice; conditions: HT-29 fibers implanted IP
Method: Compound 2-3 was tested against three tumor types in athymic nude mice using the hollow fiber xenograft model. After incubation and growth overnight, drug-permeable fibers containing tumor cells were surgically implanted either intraperitoneally (IP) or subcutaneously (SC) and allowed to grow for 24-hours. After treatment with compound 2-3, fibers were removed and tumor cell growth was measured using the MTT assay. A549, Panc-1 or HT-29 cells were injected into separate fibers and each mouse received a fiber containing each cell line both SC and IP totaling six fibers per mouse.

[4] = system: HT-29 Colorectal Xenograft; experiment: HT-29 colorectal xenograft, route of administration (Example 70); type: in vivo, mice; conditions: intraperitoneal ALZET osmotic pump, 25 mg/kg/day over 14 days
Method: This study examined the effect of route of administration on tumor growth inhibition. Tumor bearing mice were treated with compound 2-3 intraperitoneally (ALZET osmotic pumps, delivering 25 mg/kg/day over 14 days) or intravenously (80 mg/kg/d on Days 1, 4 and 7). Because of difficulty in maintaining tail vein patency, this group of mice received subsequent dose intraperitoneally on Days 10, 11, 12 and 15. Compound 2-3 delivered continuously via the osmotic pump decreased tumor growth rate to 10.75 mm^3/d, compared with vehicle-treated tumor growth rate of 28.28 mm^3/d (see FIG. 5). Treated/Control ratio was 38%. […] However, after dosing was switched to IP, this effect was lost.

[5] = system: HT-29 human colon cancer cells; experiment: HT-29 xenograft study in mice (Example 57); type: in vivo; conditions: 5 mg/kg IP, QDx5 for three weeks
Method: In order to evaluate the effectiveness of compound 2-5 against tumor cells in a living system, a xenograft study was performed in mice. 1×10^7 HT-29 human colon cancer cells were injected subcutaneously into Nu/Nu athymic nude mice (Charles River Laboratories, Wilmington, Mass.). Tumor volume was measured according to the formula ((Width)^2*Length)/2. Tumors were allowed to grow to approximately 200 mm^3 in volume (Day 0), at which point mice were randomized to three groups. Eight mice were grouped to receive SGI-1097 as treatment, and two groups of eight would receive vehicle alone as a negative control. The SGI-1097 compound was formulated in the following vehicle: 10% EtOH; 30% PEG 300; 60% solution of 300 mg/ml 2-Hydroxypropyl-beta-cyclodextrin in water.
In the treatment group, each animal received 5 mg/kg of compound 2-5 in the aforementioned vehicle at a volume of 100 μl, dosed IP. The dosing schedule was QDx5 for three weeks. […]
Another negative control group was dosed PO with corn oil on the same dosing schedule. The tumor volumes for both the treated and untreated groups were measured twice a week for the three week dosing period, and for one week after the dosing period.

[6] = 96 h, Example 20, 4 days, read-out: Cell-based IC50 values TT

CC(=O)NS(=O)(=O)c1ccc(NC(=S)N2CCN(c3ncnc4[nH]c5cc(C(F)(F)F)c(Cl)cc5c34)CC2)cc1 [Compound 1-1, 4-(6-Chloro-7-trifluoromethyl-9H-pyrimido[4,5-b]indol-4-yl)-piperazine-1-carbothioic acid (4-acetylsulfamoyl-phenyl)-amide]
IC50 ([1]; 96 h, Example 18, 4 days, read-out: calculated IC50 TT): 51.7 µM
IC50 [1, 6]: 11 µM
IC50 ([1]; Table 10, 96 hours, read-out: IC50 TT (inhibit cell growth to 50% of untreated)): 51.7 µM
IC50 [2]: 66.6 µM

COc1cc2[nH]c3ncnc(N4CCN(C(=S)Nc5ccc(S(=O)(=O)NC(C)=O)cc5)CC4)c3c2cc1OC [Compound 1-2, 4-(6,7-Dimethoxy-9H-pyrimido[4,5-b]indol-4-yl)-piperazine-1-carbothioic acid (4-acetylsulfamoyl-phenyl)-amide]
IC50 [1, 6]: 64 µM

CC(=O)NS(=O)(=O)c1ccc(NC(=S)N2CCN(c3ncnc4[nH]c5ccc(Cl)cc5c34)CC2)cc1 [Compound 1-3, 4-(6-chloro-9H-pyrimido[4,5-b]indol-4-yl)-piperazine-1-carbothioic acid (4-acetylsulfamoyl-phenyl)-amide]
IC50 [1, 6]: 13.2 µM

COc1cc2[nH]c3ncnc(N4CCN(C(=S)Nc5ccc(NC(=O)C6CC6)cc5)CC4)c3c2cc1OC [Compound 1-34]
IC50 [1, 6]: 99.1 µM

COc1cc2[nH]c3ncnc(N4CCN(C(=S)Nc5ccc(NC(C)=O)cc5)CC4)c3c2cc1OC [Compound 1-42]
IC50 [1, 6]: 129 µM

COc1cc2[nH]c3ncnc(N4CCN(C(=S)Nc5ccc(S(N)(=O)=O)cc5)CC4)c3c2cc1OC [Compound 1-107]
IC50 [1, 6]: 147 µM

COc1cc2[nH]c3ncnc(N4CCN(C(=S)Nc5ccc(S(C)(=O)=O)cc5)CC4)c3c2cc1OC [Compound 1-115]
IC50 [1, 6]: 38.6 µM

COc1cc2[nH]c3ncnc(N4CCN(C(=S)Nc5ccc(S(=O)(=O)Nc6ccc(F)cc6)cc5)CC4)c3c2cc1OC [Compound 2-3, 4-(6,7-dimethoxy-9H-pyrimido[4,5-b]indol-4-yl)-N-(4-(N-(4-fluorophenyl)sulfamoyl)phenyl)piperazine-1-carbothioamide]
tumor cell growth in fibers ([3]; 20 mg/kg intravenous): 53.8%
tumor cell growth in fibers ([3]; 40 mg/kg intravenous): 73.4%
Treated/Control ratio [4]: 38%
tumor growth rate [4]: 10.75 mm^3/d

COc1ccc2c(c1)[nH]c1ncnc(N3CCN(C(=S)Nc4ccc(S(=O)(=O)Nc5ccc(F)cc5)cc4)CC3)c12 [Compound 2-5, 4-(7-methoxy-9H-pyrimido[4,5-b]indol-4-yl)-N-(4-(N-(4-fluorophenyl)sulfamoyl)phenyl)piperazine-1-carbothioamide]
toxicity through the duration of the study [5]: No noticeable toxicity
tumor growth inhibition in vivo [5]: effective for inhibiting tumor growth in vivo
